One may read the Tmax as the time at which the peak concentration occurs. Usually EC50 stands for the concentration that produces a half-maximal response. Higher therefore signals a less potent agent.

The values that follow come from ChEMBL document CHEMBL1156230, “Identification of phenylsulfone-substituted quinoxaline (WYE-672) as a tissue selective liver X-receptor (LXR) agonist” (J Med Chem, 2010).

A short description of data set [1]: Tmax in C57 mouse at 10 mg/kg, po. Format: ADME, organism-based. The arrangement: dose 10 mg/kg, route oral. Conditions: in vivo.
The target of data set [2] is T1, Peroxisome proliferator-activated receptor gamma (Homo sapiens) (UniProt P37231).
T1 sequence (whole entry): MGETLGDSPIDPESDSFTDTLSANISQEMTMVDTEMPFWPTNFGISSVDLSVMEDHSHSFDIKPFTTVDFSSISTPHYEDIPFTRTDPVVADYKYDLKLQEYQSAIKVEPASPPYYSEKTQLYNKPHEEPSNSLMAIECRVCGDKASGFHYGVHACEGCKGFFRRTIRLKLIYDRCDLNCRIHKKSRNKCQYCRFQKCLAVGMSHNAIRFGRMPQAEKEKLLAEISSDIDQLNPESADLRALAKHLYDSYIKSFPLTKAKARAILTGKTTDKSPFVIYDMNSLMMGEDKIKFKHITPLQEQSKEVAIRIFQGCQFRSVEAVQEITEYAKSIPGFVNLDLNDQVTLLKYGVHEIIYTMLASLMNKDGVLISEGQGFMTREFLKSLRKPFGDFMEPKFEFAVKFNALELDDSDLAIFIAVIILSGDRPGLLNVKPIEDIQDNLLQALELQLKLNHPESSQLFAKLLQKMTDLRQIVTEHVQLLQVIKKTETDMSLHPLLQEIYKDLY
Kind of data set: Binding affinity to PPARgamma.

In data set [3] the target is T2, Glucocorticoid receptor (Homo sapiens) (UniProt P04150).
T2 sequence (whole entry): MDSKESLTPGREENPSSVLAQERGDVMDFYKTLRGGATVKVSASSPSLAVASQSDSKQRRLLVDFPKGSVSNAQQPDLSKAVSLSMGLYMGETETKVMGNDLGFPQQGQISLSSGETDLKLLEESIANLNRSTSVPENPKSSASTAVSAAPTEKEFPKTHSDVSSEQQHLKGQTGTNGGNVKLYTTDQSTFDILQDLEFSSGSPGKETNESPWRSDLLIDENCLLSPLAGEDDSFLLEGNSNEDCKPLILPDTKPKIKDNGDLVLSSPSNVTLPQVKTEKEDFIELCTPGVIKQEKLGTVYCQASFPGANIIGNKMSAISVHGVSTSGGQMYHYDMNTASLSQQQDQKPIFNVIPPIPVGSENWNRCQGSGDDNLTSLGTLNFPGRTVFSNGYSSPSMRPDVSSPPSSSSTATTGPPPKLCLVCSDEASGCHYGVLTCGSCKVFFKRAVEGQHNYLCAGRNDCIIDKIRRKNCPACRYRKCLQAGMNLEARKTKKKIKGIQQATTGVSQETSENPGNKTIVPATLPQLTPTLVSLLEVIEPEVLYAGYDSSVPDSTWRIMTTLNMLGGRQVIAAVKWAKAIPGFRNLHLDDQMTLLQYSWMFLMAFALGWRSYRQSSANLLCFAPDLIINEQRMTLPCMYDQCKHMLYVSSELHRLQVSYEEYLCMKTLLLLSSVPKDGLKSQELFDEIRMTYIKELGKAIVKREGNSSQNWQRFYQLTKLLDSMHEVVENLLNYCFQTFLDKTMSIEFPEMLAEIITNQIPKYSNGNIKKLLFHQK
Put plainly: Binding affinity to glucocorticoid receptor.

Data set [4] addresses T3, Mineralocorticoid receptor (Homo sapiens) (UniProt P08235).
T3 sequence (whole entry): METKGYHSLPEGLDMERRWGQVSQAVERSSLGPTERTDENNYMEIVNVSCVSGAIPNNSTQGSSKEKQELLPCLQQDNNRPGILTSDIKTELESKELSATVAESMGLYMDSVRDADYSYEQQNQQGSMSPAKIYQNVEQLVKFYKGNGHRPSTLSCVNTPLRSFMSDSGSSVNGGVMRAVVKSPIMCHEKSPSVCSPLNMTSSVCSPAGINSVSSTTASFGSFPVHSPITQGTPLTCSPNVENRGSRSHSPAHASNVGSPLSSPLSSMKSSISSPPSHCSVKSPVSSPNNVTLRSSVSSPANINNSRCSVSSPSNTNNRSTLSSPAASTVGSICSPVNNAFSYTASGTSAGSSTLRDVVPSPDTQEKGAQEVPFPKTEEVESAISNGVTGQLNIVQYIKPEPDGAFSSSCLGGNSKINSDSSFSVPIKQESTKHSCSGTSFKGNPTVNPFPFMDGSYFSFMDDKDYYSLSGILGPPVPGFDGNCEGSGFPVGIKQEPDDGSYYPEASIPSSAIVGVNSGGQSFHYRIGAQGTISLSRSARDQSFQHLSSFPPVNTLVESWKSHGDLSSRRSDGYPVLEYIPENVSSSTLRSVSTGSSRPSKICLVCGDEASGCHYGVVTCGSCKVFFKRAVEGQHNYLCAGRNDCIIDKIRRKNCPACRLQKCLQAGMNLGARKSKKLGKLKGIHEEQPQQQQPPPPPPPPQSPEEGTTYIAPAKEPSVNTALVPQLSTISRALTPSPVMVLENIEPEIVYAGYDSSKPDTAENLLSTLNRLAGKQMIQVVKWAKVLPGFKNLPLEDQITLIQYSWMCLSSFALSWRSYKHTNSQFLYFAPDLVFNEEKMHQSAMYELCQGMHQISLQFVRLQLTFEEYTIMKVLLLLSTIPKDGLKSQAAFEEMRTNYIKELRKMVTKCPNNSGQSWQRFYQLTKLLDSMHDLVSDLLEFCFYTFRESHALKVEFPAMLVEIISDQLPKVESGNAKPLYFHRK
Put plainly: Binding affinity to mineralocorticoid receptor.

A short description of data set [5]: Binding affinity to thyroid hormone receptor.
The nature of data set [6]: Plasma concentration in high fat/high cholesterol fed LDLR-deficient mouse at 0.6 mg/kg, qd administered with diet for 8 weeks measured after 3 hrs of last dose. Conditions: po. Format: ADME, organism-based. The arrangement: dose 0.6 mg/kg.
Data set [7] in a line: Plasma concentration in high fat/high cholesterol fed LDLR-deficient mouse at 3 mg/kg, qd administered with diet for 8 weeks measured after 3 hrs of last dose. Format: ADME, organism-based. Details: dose 3 mg/kg. Conditions: po.
The subject of a further data set is THP-1. Put plainly: Induction of [3H]cholesterol efflux in human THP1 cells assessed as lipid accumulation relative to T0901317. The class given is functional.
In data set [8] the target is Oxysterols receptor LXR-beta (Homo sapiens, UniProt P55055).
The test system of another data set is Mus musculus. Put plainly: Antiatherosclerotic activity against high fat/high cholesterol fed LDLR-deficient mouse assessed as pltp gene regulation at 3 mg/kg administered with diet for 7 days by Experion chip analysis. Format: functional, organism-based. Details: dose 3 mg/kg.

Activity calls are given as the source filed them. No cut-off for these calls is given here.

Oxysterols receptor LXR-beta, sequence (P55055 whole entry): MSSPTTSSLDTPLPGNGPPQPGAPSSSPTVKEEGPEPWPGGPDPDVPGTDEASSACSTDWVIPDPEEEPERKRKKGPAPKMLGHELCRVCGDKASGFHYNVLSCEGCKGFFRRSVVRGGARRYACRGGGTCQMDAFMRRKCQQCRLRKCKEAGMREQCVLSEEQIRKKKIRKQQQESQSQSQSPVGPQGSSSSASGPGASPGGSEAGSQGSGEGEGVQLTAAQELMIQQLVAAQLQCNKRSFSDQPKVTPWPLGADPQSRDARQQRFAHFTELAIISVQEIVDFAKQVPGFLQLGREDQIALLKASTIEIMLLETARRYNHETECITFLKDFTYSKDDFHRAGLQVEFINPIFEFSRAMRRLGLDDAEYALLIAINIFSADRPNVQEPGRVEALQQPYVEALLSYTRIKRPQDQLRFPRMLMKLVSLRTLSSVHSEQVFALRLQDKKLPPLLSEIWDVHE

Regarding `Cc1nc2c(C(F)(F)F)cccc2nc1-c1ccc(-c2cccc(S(C)(=O)=O)c2)cc1`, the time of peak concentration (Tmax) in data set [1] came to 4 h. The outcome in data set [2], in data set [3], in data set [4] and in data set [5] was inactive. Also, the results for the concentration at 3 h in data set [6] and in data set [7] were 1020 ng/mL and 10800 ng/mL, respectively. In the data set on THP-1, the Efficacy came out at 60%. The molecule also gave an EC50 in data set [8] of 580 nM.
For the molecule `O=C(O)Cc1cccc(OCCCN(Cc2cccc(C(F)(F)F)c2Cl)CC(c2ccccc2)c2ccccc2)c1`, the outcome with Mus musculus was Active.
